Experimental data: PubChem BioAssay AID2060897 (Molecular Pharmacology Branch, DTP, NCI, 2025)

System: 966289-007-R4-J1-PDC complex spheroid viability
Assay: Anticancer human tumor 966289-007-R4-J1-PDC patient-derived pancreatic adenocarcinoma cell line growth inhibition [RAS]
Conditions: for IC50: curve of first compound; for viability, T/C: stronger effect = lower value
Summary of the method: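 Agents were tested in combination matrices in half-log decrements from a top concentration at or near clinical Cmax (10 microM if undetermined). Targets were multi-cell spheroids of tumour lines plus HUVEC and MSC stromal cells.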
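Note: spheroids exposed to agents for one week before readout.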
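Throughout, for viability, T/C: percent viability relative to DMSO vehicle control wells as 100%.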

Q: How did the IC50 (second compound 0.0316 µM) turn out when `CCC(CC)c1cc(NC2CCC(N)C2)n2nccc2n1` (centres undefined) + C#Cc1c(F)ccc2cc(O)cc(-c3ncc4c(N5CC6CCC(C5)N6)nc(OCC56CCCN5CC(F)C6)nc4c3F)c12 was run?
A: The IC50 was 1.8 µM.

Q: What about the IC50 (second compound 0.1 µM) of the same compound?
A: Its IC50 is 1.87 µM.

Q: And the IC50 (second compound 0.316 µM)?
A: The IC50 was 1.88 µM.

Q: What about the IC50 (second compound 1 µM) of the same compound?
A: The IC50 was 1.88 µM.

Q: What about the IC50 (second compound 3.16 µM) of the same compound?
A: Its IC50 is 1.9 µM.

Q: And the IC50 (second compound 10 µM)?
A: The IC50 was 1.81 µM.

Q: And the viability, T/C (second compound 0.0316 µM, first compound 0.0316 µM)?
A: The viability, T/C was 99.4%.

Q: What about the viability, T/C (second compound 0.0316 µM, first compound 0.1 µM) of the same compound?
A: The viability, T/C was 87.7%.

Q: And the viability, T/C (second compound 0.0316 µM, first compound 0.316 µM)?
A: The viability, T/C was 97.2%.

Q: And the viability, T/C (second compound 0.0316 µM, first compound 1 µM)?
A: The viability, T/C was 111%.

Q: What about the viability, T/C (second compound 0.0316 µM, first compound 3.16 µM) of the same compound?
A: The viability, T/C was 2.83%.

Q: What about the viability, T/C (second compound 0.0316 µM, first compound 10 µM) of the same compound?
A: The viability, T/C was 2.78%.

Q: And the viability, T/C (second compound 0.1 µM, first compound 0.0316 µM)?
A: Its viability, T/C is 91.1%.

Q: And the viability, T/C (second compound 0.1 µM, first compound 0.1 µM)?
A: Its viability, T/C is 97.8%.

Q: And the viability, T/C (second compound 0.1 µM, first compound 0.316 µM)?
A: The viability, T/C was 106%.

Q: And the viability, T/C (second compound 0.1 µM, first compound 1 µM)?
A: Its viability, T/C is 133%.

Q: And the viability, T/C (second compound 0.1 µM, first compound 3.16 µM)?
A: The viability, T/C was 2.38%.

Q: What about the viability, T/C (second compound 0.1 µM, first compound 10 µM) of the same compound?
A: Its viability, T/C is 2.61%.

Q: And the viability, T/C (second compound 0.316 µM, first compound 0.0316 µM)?
A: Its viability, T/C is 93%.

Q: And the viability, T/C (second compound 0.316 µM, first compound 0.1 µM)?
A: Its viability, T/C is 95.1%.

Q: And the viability, T/C (second compound 0.316 µM, first compound 0.316 µM)?
A: Its viability, T/C is 106%.

Q: What about the viability, T/C (second compound 0.316 µM, first compound 1 µM) of the same compound?
A: The viability, T/C was 137%.

Q: And the viability, T/C (second compound 0.316 µM, first compound 3.16 µM)?
A: The viability, T/C was 2.97%.

Q: And the viability, T/C (second compound 0.316 µM, first compound 10 µM)?
A: Its viability, T/C is 2.55%.

Q: And the viability, T/C (second compound 1 µM, first compound 0.0316 µM)?
A: The viability, T/C was 90.4%.

Q: What about the viability, T/C (second compound 1 µM, first compound 0.1 µM) of the same compound?
A: Its viability, T/C is 93.1%.

Q: What about the viability, T/C (second compound 1 µM, first compound 0.316 µM) of the same compound?
A: Its viability, T/C is 116%.

Q: And the viability, T/C (second compound 1 µM, first compound 1 µM)?
A: The viability, T/C was 127%.

Q: What about the viability, T/C (second compound 1 µM, first compound 3.16 µM) of the same compound?
A: Its viability, T/C is 2.97%.

Q: And the viability, T/C (second compound 1 µM, first compound 10 µM)?
A: Its viability, T/C is 2.86%.

Q: And the viability, T/C (second compound 3.16 µM, first compound 0.0316 µM)?
A: Its viability, T/C is 100%.

Q: What about the viability, T/C (second compound 3.16 µM, first compound 0.1 µM) of the same compound?
A: Its viability, T/C is 94.9%.

Q: What about the viability, T/C (second compound 3.16 µM, first compound 0.316 µM) of the same compound?
A: The viability, T/C was 116%.

Q: And the viability, T/C (second compound 3.16 µM, first compound 1 µM)?
A: Its viability, T/C is 126%.

Q: What about the viability, T/C (second compound 3.16 µM, first compound 3.16 µM) of the same compound?
A: The viability, T/C was 2.6%.

Q: What about the viability, T/C (second compound 3.16 µM, first compound 10 µM) of the same compound?
A: Its viability, T/C is 2.57%.

Q: And the viability, T/C (second compound 10 µM, first compound 0.0316 µM)?
A: Its viability, T/C is 86.1%.

Q: What about the viability, T/C (second compound 10 µM, first compound 0.1 µM) of the same compound?
A: Its viability, T/C is 88.7%.

Q: And the viability, T/C (second compound 10 µM, first compound 0.316 µM)?
A: The viability, T/C was 111%.

Q: What about the viability, T/C (second compound 10 µM, first compound 1 µM) of the same compound?
A: The viability, T/C was 122%.

Q: What about the viability, T/C (second compound 10 µM, first compound 3.16 µM) of the same compound?
A: The viability, T/C was 0.62%.

Q: What about the viability, T/C (second compound 10 µM, first compound 10 µM) of the same compound?
A: The viability, T/C was 0.86%.

Q: Which IC50 (second compound 0.000949 µM) does the source give for `CCC(CC)c1cc(NC2CCC(N)C2)n2nccc2n1` (centres undefined) + CCn1c(-c2cccnc2C(C)OC)c2c3cc(ccc31)N1CCOC(CC(NC(=O)C(C(C)C)N(C)C(=O)C3(F)CCN(C(=O)C#CC(C)(C)N(C)C)CC3)C(=O)N3CCCC(N3)C(=O)OCC(C)(C)C2)C1 here?
A: The IC50 was 1.5 µM.

Q: And the IC50 (second compound 0.003 µM)?
A: The IC50 was 1.42 µM.

Q: What about the IC50 (second compound 0.00949 µM) of the same compound?
A: Its IC50 is 1.48 µM.

Q: And the IC50 (second compound 0.03 µM)?
A: The IC50 was 1.07 µM.

Q: And the IC50 (second compound 0.0949 µM)?
A: Its IC50 is 0.764 µM.

Q: What about the IC50 (second compound 0.3 µM) of the same compound?
A: The IC50 was 0.595 µM.

Q: And the viability, T/C (second compound 0.000949 µM, first compound 0.0316 µM)?
A: Its viability, T/C is 113%.

Q: And the viability, T/C (second compound 0.000949 µM, first compound 0.1 µM)?
A: The viability, T/C was 87%.

Q: And the viability, T/C (second compound 0.000949 µM, first compound 0.316 µM)?
A: Its viability, T/C is 115%.

Q: And the viability, T/C (second compound 0.000949 µM, first compound 1 µM)?
A: The viability, T/C was 76.3%.

Q: And the viability, T/C (second compound 0.000949 µM, first compound 3.16 µM)?
A: The viability, T/C was 1.1%.

Q: And the viability, T/C (second compound 0.000949 µM, first compound 10 µM)?
A: Its viability, T/C is 1.22%.

Q: And the viability, T/C (second compound 0.003 µM, first compound 0.0316 µM)?
A: The viability, T/C was 99.7%.

Q: And the viability, T/C (second compound 0.003 µM, first compound 0.1 µM)?
A: Its viability, T/C is 82.4%.

Q: And the viability, T/C (second compound 0.003 µM, first compound 0.316 µM)?
A: The viability, T/C was 66.7%.

Q: What about the viability, T/C (second compound 0.003 µM, first compound 1 µM) of the same compound?
A: The viability, T/C was 71.3%.

Q: What about the viability, T/C (second compound 0.003 µM, first compound 3.16 µM) of the same compound?
A: Its viability, T/C is 1.2%.

Q: And the viability, T/C (second compound 0.003 µM, first compound 10 µM)?
A: The viability, T/C was 0.93%.

Q: What about the viability, T/C (second compound 0.00949 µM, first compound 0.0316 µM) of the same compound?
A: The viability, T/C was 82.1%.

Q: And the viability, T/C (second compound 0.00949 µM, first compound 0.1 µM)?
A: The viability, T/C was 122%.

Q: What about the viability, T/C (second compound 0.00949 µM, first compound 0.316 µM) of the same compound?
A: Its viability, T/C is 96.5%.

Q: What about the viability, T/C (second compound 0.00949 µM, first compound 1 µM) of the same compound?
A: Its viability, T/C is 75.1%.

Q: What about the viability, T/C (second compound 0.00949 µM, first compound 3.16 µM) of the same compound?
A: Its viability, T/C is 1.25%.

Q: What about the viability, T/C (second compound 0.00949 µM, first compound 10 µM) of the same compound?
A: Its viability, T/C is 1.32%.

Q: What about the viability, T/C (second compound 0.03 µM, first compound 0.0316 µM) of the same compound?
A: Its viability, T/C is 66.9%.

Q: And the viability, T/C (second compound 0.03 µM, first compound 0.1 µM)?
A: The viability, T/C was 72.1%.

Q: And the viability, T/C (second compound 0.03 µM, first compound 0.316 µM)?
A: The viability, T/C was 123%.

Q: What about the viability, T/C (second compound 0.03 µM, first compound 1 µM) of the same compound?
A: Its viability, T/C is 52.9%.

Q: And the viability, T/C (second compound 0.03 µM, first compound 3.16 µM)?
A: Its viability, T/C is 1.48%.

Q: What about the viability, T/C (second compound 0.03 µM, first compound 10 µM) of the same compound?
A: The viability, T/C was 1.83%.

Q: And the viability, T/C (second compound 0.0949 µM, first compound 0.0316 µM)?
A: The viability, T/C was 64%.

Q: And the viability, T/C (second compound 0.0949 µM, first compound 0.1 µM)?
A: The viability, T/C was 106%.

Q: What about the viability, T/C (second compound 0.0949 µM, first compound 0.316 µM) of the same compound?
A: Its viability, T/C is 132%.

Q: And the viability, T/C (second compound 0.0949 µM, first compound 1 µM)?
A: The viability, T/C was 34.6%.

Q: What about the viability, T/C (second compound 0.0949 µM, first compound 3.16 µM) of the same compound?
A: Its viability, T/C is 0.98%.

Q: And the viability, T/C (second compound 0.0949 µM, first compound 10 µM)?
A: The viability, T/C was 0.98%.

Q: And the viability, T/C (second compound 0.3 µM, first compound 0.0316 µM)?
A: Its viability, T/C is 93.5%.

Q: And the viability, T/C (second compound 0.3 µM, first compound 0.1 µM)?
A: Its viability, T/C is 94.5%.

Q: What about the viability, T/C (second compound 0.3 µM, first compound 0.316 µM) of the same compound?
A: Its viability, T/C is 98.5%.

Q: And the viability, T/C (second compound 0.3 µM, first compound 1 µM)?
A: Its viability, T/C is 12.7%.

Q: And the viability, T/C (second compound 0.3 µM, first compound 3.16 µM)?
A: The viability, T/C was 1.23%.

Q: And the viability, T/C (second compound 0.3 µM, first compound 10 µM)?
A: Its viability, T/C is 1.13%.
